Source: PubChem BioAssay (NCI)
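Five concentrations, 48 hours, 96-well plates. GI50: concentration for 50% inhibition of growth. At the TGI there is no net growth.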

What was measured:
Assay in all cases: DTP human tumour cell line panel, 48 h
HCT-116 colon = tested on: HCT-116 colon
NCI-H23 lung = tested on: NCI-H23 lung
CAKI-1 renal = tested on: CAKI-1 renal
OVCAR-8 ovarian = tested on: OVCAR-8 ovarian
SN12C renal = tested on: SN12C renal
SK-MEL-2 melanoma = tested on: SK-MEL-2 melanoma
ACHN renal = tested on: ACHN renal
DU-145 prostate = tested on: DU-145 prostate
SK-OV-3 ovarian = tested on: SK-OV-3 ovarian
HT29 colon = tested on: HT29 colon
A549 NSCLC = tested on: A549 NSCLC
CCRF-CEM leukemia = tested on: CCRF-CEM leukemia
M14 melanoma = tested on: M14 melanoma
SR leukemia = tested on: SR leukemia
MALME-3M melanoma = tested on: MALME-3M melanoma
HOP-62 NSCLC = tested on: HOP-62 NSCLC
UACC-257 melanoma = tested on: UACC-257 melanoma
SF-268 CNS = tested on: SF-268 CNS
786-0 renal = tested on: 786-0 renal
SW-620 colon = tested on: SW-620 colon
K-562 leukemia = tested on: K-562 leukemia
MOLT-4 leukemia = tested on: MOLT-4 leukemia
NCI-H226 lung = tested on: NCI-H226 lung
MDA-MB-435 = tested on: MDA-MB-435
OVCAR-5 ovarian = tested on: OVCAR-5 ovarian
IGROV1 ovarian = tested on: IGROV1 ovarian
HCC-2998 colon = tested on: HCC-2998 colon
NCI-H522 lung = tested on: NCI-H522 lung

O=C1Nc2ccccc2/C1=C\c1c[nH]c2ccc(Br)cc12
GI50 (HCT-116 colon): 1.61 µM | TGI (HCT-116 colon): 3.11 µM | GI50 (NCI-H23 lung): 1.92 µM | TGI (NCI-H23 lung): 5.61 µM | GI50 (CAKI-1 renal): 2.67 µM | TGI (CAKI-1 renal): 13.6 µM | GI50 (OVCAR-8 ovarian): 2.85 µM | TGI (OVCAR-8 ovarian): 10.4 µM | GI50 (SN12C renal): 2.63 µM | TGI (SN12C renal): 7.6 µM | GI50 (SK-MEL-2 melanoma): 1.99 µM | TGI (SK-MEL-2 melanoma): 4.41 µM | GI50 (ACHN renal): 2.82 µM | TGI (ACHN renal): 10.1 µM | GI50 (DU-145 prostate): 3.23 µM | TGI (DU-145 prostate): 11 µM | GI50 (SK-OV-3 ovarian): 3.63 µM | TGI (SK-OV-3 ovarian): 15 µM | GI50 (HT29 colon): 2.75 µM | TGI (HT29 colon): 6.56 µM | GI50 (A549 NSCLC): 2.26 µM | TGI (A549 NSCLC): 6.23 µM | GI50 (CCRF-CEM leukemia): 3.18 µM | TGI (CCRF-CEM leukemia): 10.5 µM | GI50 (M14 melanoma): 1.67 µM | TGI (M14 melanoma): 3.68 µM | GI50 (SR leukemia): 2.59 µM | TGI (SR leukemia): 6.32 µM | GI50 (MALME-3M melanoma): 5.55 µM | TGI (MALME-3M melanoma): 25.1 µM | GI50 (HOP-62 NSCLC): 3.5 µM | TGI (HOP-62 NSCLC): 13.3 µM | GI50 (UACC-257 melanoma): 2.91 µM | TGI (UACC-257 melanoma): 14.5 µM | GI50 (SF-268 CNS): 3.3 µM | TGI (SF-268 CNS): 16.2 µM | GI50 (786-0 renal): 3.82 µM | TGI (786-0 renal): 14.7 µM | GI50 (SW-620 colon): 2.89 µM | TGI (SW-620 colon): 10.7 µM | GI50 (K-562 leukemia): 3.26 µM | TGI (K-562 leukemia): 8 µM | GI50 (MOLT-4 leukemia): 2.76 µM | TGI (MOLT-4 leukemia): 8.6 µM | GI50 (NCI-H226 lung): 6.23 µM | TGI (NCI-H226 lung): 41.9 µM | GI50 (MDA-MB-435): 2.44 µM | TGI (MDA-MB-435): 6.89 µM | GI50 (OVCAR-5 ovarian): 2.26 µM | TGI (OVCAR-5 ovarian): 5.86 µM | GI50 (IGROV1 ovarian): 2.57 µM | TGI (IGROV1 ovarian): 11.2 µM | GI50 (HCC-2998 colon): 1.86 µM | TGI (HCC-2998 colon): 3.45 µM | GI50 (NCI-H522 lung): 1.83 µM | TGI (NCI-H522 lung): 3.77 µM
